The values below are quoted from earlier work in patent US11504416B2, “Formulation with cannabinoids” (PAW POWER, INC., priority 2018, dated 2022).

For data set [1] the following is noted: intra-articular injection, high molecular weight (>5×10^6 Da).

On to `N[C@H]1C(O)O[C@H](CO)[C@@H](O)[C@@H]1O` (stereo partly shown) [Glucosamine], for which, under “administered orally”, the gastrointestinal absorption result is listed as “readily absorbed”. Besides, for the setting “after oral ingestion”, the “time to peak levels in the bloodstream” value is ≤ 8 h. The “tissue distribution of ingested glucosamine” value (oral ingestion) was “localizes to cartilage and joint tissues”.
On to hyaluronic acid, for which the “function in subjects with osteoarthritis or rheumatoid arthritis” value in data set [1] is listed as “improves function”.
